Values quoted from earlier work in patent US8658200B2, “Flavoring of drug-containing chewing gums” (McNeil-PPC, Inc., priority 2005, dated 2014).

System: adult

In the case of `CN1CCCC1c1cccnc1` (stereo not shown) [nicotine, 3-(1-methyl-2-pyrrolidinyl)-pyridine], the “amount of nicotine able to kill an adult” value is listed as “Approximately 40 milligrams”.
